Structures are written as SMILES.

Experiment [1] concerns the target Proto-oncogene tyrosine-protein kinase Src (Homo sapiens, UniProt P12931). The experiment in a line: Inhibition of human GST-fused Src-mediated Poly Glu4Tyr phosphorylation by ELISA.
A further experiment can be described thus: cells. The conditions noted are these: Homo sapiens, HF1, 48 h.
A further experiment deals with Keratinocyte. Description: cells. The conditions noted are these: Homo sapiens, 72 h.

Chain of Proto-oncogene tyrosine-protein kinase Src (P12931 2-536 limits assumed): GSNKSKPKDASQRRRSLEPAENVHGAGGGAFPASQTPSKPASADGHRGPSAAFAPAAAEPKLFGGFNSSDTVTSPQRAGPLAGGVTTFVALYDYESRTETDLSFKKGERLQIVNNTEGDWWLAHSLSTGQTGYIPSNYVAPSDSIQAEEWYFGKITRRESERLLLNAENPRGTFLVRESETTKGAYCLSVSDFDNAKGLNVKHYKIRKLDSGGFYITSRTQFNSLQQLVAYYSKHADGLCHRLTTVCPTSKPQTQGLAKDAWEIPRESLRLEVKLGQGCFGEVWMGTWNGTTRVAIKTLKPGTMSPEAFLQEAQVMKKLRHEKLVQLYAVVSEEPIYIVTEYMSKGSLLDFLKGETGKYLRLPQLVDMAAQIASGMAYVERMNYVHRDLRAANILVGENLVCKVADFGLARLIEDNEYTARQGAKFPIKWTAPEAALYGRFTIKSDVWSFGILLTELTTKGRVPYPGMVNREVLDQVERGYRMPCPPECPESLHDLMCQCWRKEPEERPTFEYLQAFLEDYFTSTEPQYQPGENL
Description for Keratinocyte: Growth inhibition of human primary keratinocytes after 72 hrs by micro culture methylene blue assay

Take `Oc1ccc(CNc2ccc3c(c2)OCO3)cc1O`: the half-inhibitory concentration (IC50) in experiment [1] is 1.86 µM; in the experiment “cells”, 170 µM; with Keratinocyte it was 73 µM.

With `Oc1ccc(CN(Cc2ccc(O)c(O)c2)c2ccc3c(c2)OCO3)cc1O`, the values for the IC50 (in experiment [1]; in the experiment “cells”; in the experiment with Keratinocyte) were 0.83 µM, 106 µM and 18 µM, respectively.

For `N#C/C(=C\c1ccc(O)c(O)c1)C(=O)c1ccc(O)c(O)c1`, the half-inhibitory concentration (IC50) in “cells” came out at 390 µM.

The record behind these values is ChEMBL document CHEMBL1240326, “ATP non-competitive IGF-1 receptor kinase inhibitors as lead anti-neoplastic and anti-papilloma agents” (Eur J Pharmacol, 2007).
